Data taken from patent US7342137B1, “Cyclohexenone compounds from Antrodia camphorata and application thereof” (Golden Biotechnology Corporation, priority 2007, dated 2008).

What was measured:
[1] = tested on: human breast-cancer cells, MDA-MB-231; test: In vitro Taxol add-on study (MTT), MDA-MB-231; format: cell-based; details: Homo sapiens, 0.0017 μg/ml Taxol + formula 2
Description: The experiment was also carried out according to NCI anti-cancer drug screen in vitro model. The human breast-cancer cells, MCF-7 and MDA-MB-231 were separately cultivated in media containing fetal calf serum for 24 hours. The proliferated cells were washed once with PBS, then treated with 1× trypsin-EDTA and centrifuged at 1200 rpm for 5 minutes. The supernatant was discarded and the cell pellet was resuspended in 10 ml of fresh culture medium by gently shaking. The cells were placed in a 96-well plate after 0.0017 μg/ml Taxol was added and treated for 72 hours. 4-hydroxy-2,3-dimethoxy-6-methyl-5(3,7,11-trimethyl-dodeca-2,6,10-trienyl)-cyclohex-2-enone obtained from example 1 were added respectively into each of the 96 wells at the following concentrations: 0 μg/ml (the control group); 30, 10, 3, 1, 0.3, 0.1 and 0.03 μg/ml (the experiment group). The cells were incubated at 37° C. in a 5% CO2 incubator for 48 hours. MTT was added in a concentration of 2.5 mg/ml into each well in dark and reacted for 4 hours, followed by the addition of 100 μl of lysis buffer to terminate the reaction. The plates were read on an ELISA reader at wavelength of 570 nm to determine the survival rates.

[2] = tested on: Human low density lipoprotein (LDL); test: In vitro antioxidant activity study (Cu2+-induced LDL oxidation, diene formation); format: biochemical; details: 40 μg/mL formula 2; for Capacity values: capacity value 1 = 2 μM Trolox, antioxidant ability when larger than 0.5
Description: Human low density lipoprotein (LDL) oxidated with copper ion (Cu^2+) has been widely employed to assess antioxidant activities of samples to be assayed. Antioxidant activity of a sample is determined by the diene contents of LDL after oxidation and expressed in Trolox equivalents by using a standard curve calculated from the water-soluble vitamin E analogue Trolox standards (the antioxidant capacity value of 1 is expressed in terms of 2 μM of Trolox).
The following solutions were prepared firstly: double distilled water (the negative control group), 5 mM sodium phosphate buffer (SPB), 1 μM and 2 μM Trolox solution (the positive control group), and 40 μg/ml 4-hydroxy-2,3-dimethoxy-6-methyl-5(3,7,11-trimethyl-dodeca-2,6,10-trienyl)-cyclohex-2-enone isolated from example 1. The concentration of LDL cholesterol (LDL-C) was determined using enzyme reaction method, which was diluted to 0.1-0.25 mg/ml with 5 mM SPB. One hundred μl of the LDL was added into each well of a 96-well quartz plate, followed by addition of the abovementioned Trolox and the isolated compound from example 1. Standardized oxidizing agent CuSO4 was supplemented to induce oxidation at a final concentration of 5 μM in each 250 μl well. The plate was read on an ELISA reader at wavelength of 232 nm at 37 °C for 12 hours. The sampling time was 15 min.

[3] = tested on: human hepatic cancer cells, Hep G2; test: In vitro Taxol add-on study (MTT), Hep G2; format: cell-based; details: Homo sapiens, HepG2, 0.0017 μg/ml Taxol + formula 2
Description: (§1) The experiment was also carried out according to NCI anti-cancer drug screen in vitro model. The human hepatic cancer cells, Hep 3B and Hep G2 and MDA-MB-231 were separately cultivated in media containing fetal calf serum for 24 hours. The proliferated cells were washed once with PBS, then treated with 1× trypsin-EDTA and centrifuged at 1200 rpm for 5 minutes. The supernatant was discarded and the cell pellet was resuspended in 10 ml of fresh culture medium by gently shaking. The Hep 3B cells were treated with 0.0043 μg/ml of Lovastatin for 72 hours and Hep G2 cells were treated with 0.0017 μg/ml of Taxol for 72 hours before placing in a 96-well plate. 4-hydroxy-2,3-dimethoxy-6-methyl-5(3,7,11-trimethyl-dodeca-2,6,10-trienyl)-cyclohex-2-enone obtained from example 1 were added respectively into each of the 96 wells at the following concentrations: 0 μg/ml (the control group); 30, 10, 3, 1, 0.3, 0.1 and 0.03 μg/ml (the experiment group). The cells were incubated at 37° C. in a 5% CO2 incubator for 48 hours. MTT was added in a concentration of 2.5 mg/ml into each well in dark and reacted for 4 hours, followed by the addition of 100 μl of lysis buffer to stop the reaction. The plates were read on an ELISA reader at wavelength of 570 nm to determine the survival rates.

[4] = tested on: human prostate cancer cells, DU-145; test: In vitro Taxol add-on study (MTT), prostate cancer cells DU-145; format: cell-based; details: Homo sapiens; DU-145 (0.0043 μg/ml Taxol + formula 2) as printed in Table 6
Description: as §1, with “human prostate” for “human hepatic”, “cells, LNCaP” for “cells, Hep 3B”, “and DU-145” for “and Hep G2 and MDA-MB-231”, “The LNCaP cells were treated with 0.0017 μg/ml of Taxol for 72 hours and DU-145” for “The Hep 3B”, “0.0043” for “0.0043 μg/ml of Lovastatin for 72 hours and Hep G2 cells were treated with 0.0017”

[5] = tested on: human hepatic cancer cells, Hep 3B; test: In vitro Lovastatin add-on study (MTT), Hep 3B; format: cell-based; details: Homo sapiens, Hep3B, 0.0043 μg/ml Lovastatin + formula 2
Description: as §1

IC50 [1]: 11 ng/mL
IC50 [3]: 8 ng/mL
IC50 [4]: 515 ng/mL
IC50 [5]: 2 ng/mL
SMILES: COC1=C(OC)C(O)C(C/C=C(\C)CC/C=C(\C)CCC=C(C)C)C(C)C1=O (centres unmarked) [formula 2, 4-hydroxy-2,3-dimethoxy-6-methyl-5(3,7,11-trimethyl-dodeca-2,6,10-trienyl)-cyclohex-2-enone]
Tlag ([2]; LDL oxidised with 5 μM CuSO4): 439 min
Capacity values [2]: 1.30
Capacity values ([2]; listed as 4-hydroxy-2,3-dimethoxy-6-methyl-5(3,7,11-trimethyl-dodeca-2,6,10-trienyl)-cyclo): 1.3
ΔTlag ([2]; difference between Tlag and Tlag0 (H2O)): 208 min
